# Experimental data as given in ChEMBL document CHEMBL1136446, “Synthesis and antiproliferative activity of retroetoposide” (Bioorg Med Chem Lett, 2003).
# Tested on: L1210
# Assay: Inhibitory activity against L1210 cell line
# Type: functional, cell-based
# Conditions: Mus musculus
row,SMILES,IC50 [µM]
1,COc1cc([C@@H]2c3cc4c(cc3[C@@H](O[C@@H]3O[C@H]5CO[C@@H](C)O[C@H]5[C@H](O)[C@@H]3O)[C@H]3C(=O)OC[C@H]23)OCO4)cc(OC)c1O,6.74
2,COc1cc([C@@H]2c3cc4c(cc3[C@@H](O)C3C(=O)OCC32)OCO4)cc(OC)c1O (stereo partly drawn),27.4
3,COc1cc([C@@H]2c3cc4c(cc3[C@@H](O[C@@H]3O[C@@H]5CO[C@@H](C)O[C@H]5[C@H](O)[C@H]3O)[C@H]3COC(=O)[C@H]23)OCO4)cc(OC)c1O [ETOPOSIDE],0.834
